Test results from patent US8846012B2, “Melanin production inhibitor” (Pola Chemical Industries Inc., priority 2008, dated 2014).
Values after ≈ are worked out from the molar mass of the structure shown. Where two headings read alike, the source gives them in different places. Blank lines part the entries; values can stand above or below the compound they belong to.

Assays:
normal human melanocytes = assay: Melanin production inhibition test using cultured normal human melanocytes (14C-thiouracil incorporation); type: cell-based; conditions: for activity at 2 µM: addition amount 2.0 μM; for activity at 20 µM: treatment concentration 20 μM; for activity at 15 µM: treatment concentration 15 μM
Method: The inhibitory effect on melanin production of the melanin production inhibitor of the present invention can be measured using thiouracil which is incorporated specifically into cells in a melanin synthesis process in the cells. For example, the amount of melanin production can be measured by measuring an amount of thiouracil incorporated into cells by measuring an amount of radiation with radiolabeled thiouracil.
The inhibitory effect on melanin production of Compound 1 was evaluated using 2-thiouracil (^14C-labeled 2-thiouracil was used in this test) which is incorporated specifically into melanin in an intracellular melanin synthesis process. Complete medium for culture of melanocytes (manufactured by Kurabo Industries Ltd.) was added to 15 wells in a 24-well plate in an amount of 2 mL per well, and normal human melanocytes (manufactured by Kurabo Industries Ltd.) were seeded into the wells at a concentration of 1.5×10^4 cells/cm^2. The cells were cultured in a 5% carbon dioxide atmosphere at 37° C. for 24 hours. Thereafter, the medium in all the wells was exchanged under the following conditions: fresh complete medium for culture of melanocytes (control) was used in three wells; each of complete medium for culture of melanocytes, which including Compound 1 at concentrations of 1.0 μM, 2.0 μM, and 4.0 μM, was used in a total of nine wells including three wells for each concentration; and complete medium for culture of melanocytes, each of which including arbutin (positive control) known as a melanin production inhibitor at a concentration of 0.5 mM (500 μM), was used in the other three wells. Further, 2-[2-^14C]thiouracil (^14C-labeled thiouracil) was added to each of these 15 wells at 0.25×10^−6 Ci (curie). Then, the cells were cultured for further 3 days under the same conditions as the above. After the completion of culture, the culture medium was removed from the wells, and the cells were washed with phosphate buffered physiological saline (PBS) and then separated from the bottoms of the wells with medium including trypsin and EDTA to prepare cell suspensions, followed by centrifugation to collect the cells. The number of the cells was counted using a hemocytometer. Thereafter, the amounts of ^14C-thiouracil in the cells collected from each well (0.25×10^−6 Ci) were measured using a liquid scintillation counter (ALOKA CO., LTD.). The percentages of an amount of radioactivity in the cells cultured in the medium including the test substances with respect to an amount of radioactivity in the cells collected from the well of the control were calculated as amounts of melanin (%). That is, as the amount of radioactivity incorporated into the cells is smaller, the amount of melanin is evaluated to be smaller, i.e., the melanin inhibition effect of the component added is evaluated to be larger.
Inhibitory effects on melanin production of Compounds 2 to 39 (however, the effects of Compound 9 and 15 were not measured) were examined in the same procedure as in Test Example 1.
These were examined in the same procedure as in Test Example 1.
Further, the results of melanin production inhibition by treatment with the respective test compounds, determined in the same procedure as in Test Example 1, are also shown in the table.

[1] = system: Trichopyton mentagrophytes (ATCC18748); assay: Measurement of antimycotic activity (Alamar Blue growth inhibition of dermatophytes); type: cell-based; conditions: for growth inhibitory effect on Trichopyton mentagrophytes (in words): added at a concentration of 100 μg/mL; for MIC80: read-out: MIC80 Concentration; for inhibition at 0.1563 µg/mL / inhibition at 0.3125 µg/mL / inhibition at 0.625 µg/mL / inhibition at 1.25 µg/mL / inhibition at 2.5 µg/mL / inhibition at 5 µg/mL / inhibition at 10 µg/mL / inhibition at 100 µg/mL: read-out: Growth inhibition rate
Method: 10.4 g of RPMI1640 (manufactured by SAFC Biosciences) were dissolved in 900 mL of distilled water, and 34.53 g of a 0.165 M MOPS buffer (manufactured by DOJINDO LABORATORIES) were added and dissolved by stirring.
Dermatophytes (Trichopyton mentagrophytes (ATCC18748)) were inoculated into a 1/10 Sabouraud Dextrose agar medium (manufactured by DIFCO) and cultured at 28° C. for 14 days, and then a conidial suspension was prepared using 0.1% Tween80-including physiological saline. The suspension was filtered through gauze, and the number of the conidia was counted using a hemocytometer and then adjusted to 2.5×10^5/mL with the RPMI1640 medium. The resultant suspension was used as an inoculum.
Compound 5 and clotrimazole were diluted with the RPMI1640 medium to prepare 0.3125, 0.625, 1.25, 2.5, 5, 10, 20, and 200 μg/mL diluted solutions. The diluted solutions having different concentrations were dispensed into a 96-well flat-bottom microplate in an amount of 100 μL per well, and 80 μL of the inoculum and 20 μL of an Alamar Blue solution (manufactured by Nalgene) were further added thereto. Further, 80 μL of the inoculum and 20 μL of the Alamar Blue solution were added to 100 μL of the RPMI1640 medium in growth control wells, and 20 μL of the Alamar Blue solution was added to 180 μL of the RPMI1640 medium in negative control wells. The microplate was placed in a chamber in which the humidity was kept constant, and culture was started at 27° C., and the cells were observed every 24 hours. 120 hours from beginning of culture, i.e., when the growth control became obviously red (reduced form), absorbance measurement at 570 nm was performed using a microplate reader (SPECTRAMAX 250, manufactured by Molecular Device).
The test compounds were tested at the respective concentrations in triplicate. The growth inhibition rate (%) of each of the test compound-added groups was determined by the following equation based on a value calculated by subtracting an average absorbance value of the negative control from an average absorbance value of the growth control and the test compound-added wells. Further, […] (minimum inhibitory concentration; the minimum concentration at which the growth inhibition rate is 80% or more) was calculated from the growth inhibition rate of each test compound. Growth inhibition rate (%)=[1−(average absorbance value in test compound-added wells-average absorbance value of negative control)/(average absorbance value of growth control-average absorbance value of negative control)]×100
Compound 1, Compounds 3 to 6, Compound 40, Compound 41, triphenylmethylamine, triphenylmethanol, triphenylmethane, aminodiphenylmethane, and clotrimazole were diluted with the RPMI1640 medium to prepare 0.3125, 0.625, 1.25, 2.5, 5, 10, 20, and 200 μg/mL diluted solutions. The diluted solutions having different concentrations were dispensed into a 96-well flat-bottom microplate in an amount of 100 μl, per well, and 80 μL of the inoculum and 20 μl, of an Alamar Blue solution (manufactured by Nalgene) were further added thereto. Further, 80 μl, of the inoculum and 20 μl, of the Alamar Blue solution were added to 100 μL of the RPMI1640 medium in growth control wells, and 20 μL of the Alamar Blue solution was added to 180 μL of the RPMI1640 medium in negative control wells. The microplate was placed in a chamber in which the humidity was kept constant, and then culture was started at 27° C., and the cells were observed every 24 hours. 120 hours from beginning of culture, i.e., when the growth control became obviously red (reduced form), absorbance measurement at 570 nm was performed using a microplate reader (SPECTRAMAX 250, manufactured by Molecular Device).
The test compounds were tested at the respective concentrations in triplicate. […]

[2] = minimum concentration at which the growth inhibition rate is 80% or more
[3] = Homo sapiens, Melanocyte, Table 7, treatment concentration 4 μM, read-out: Amount of melanin
[4] = Homo sapiens, Melanocyte, Table 7, read-out: Amount of melanin

- MIC80 [1, 2]: > 100 µg/mL
Structure (SMILES): NC(c1ccccc1)c1ccccc1 [Aminodiphenylmethane]
- activity at 40 µM (normal human melanocytes; Homo sapiens, Melanocyte, Table 3, addition amount 40 μM, control = 100%): 36.6 ± 12.8%
- activity at 50 µM (normal human melanocytes; Homo sapiens, Melanocyte, Table 7, treatment concentration 50 μM, read-out: Amount of melanin): 28.8 ± 2.03%
- growth inhibitory effect on Trichopyton mentagrophytes (in words) [1]: no growth inhibitory effect

- MIC80 [1, 2]: 0.625 µg/mL (≈ 1.81 µM)
Structure (SMILES): Clc1ccccc1C(c1ccccc1)(c1ccccc1)n1ccnc1 [Clotrimazole, clotrimazole, reference compound]
- activity at 2.5 µM (normal human melanocytes; Homo sapiens, Melanocyte, Table 7, treatment concentration 2.5 μM, read-out: Amount of melanin): 23.2%
- Amount of melanin (normal human melanocytes; Table 7, treatment concentration 2.5 μM): 23.2 ± 2.03 %/control
- inhibition at 0.1563 µg/mL ([1]; concentration 0.1563 μg/mL, 120 hours): 27%
- inhibition at 0.3125 µg/mL ([1]; concentration 0.3125 μg/mL, 120 hours): 53%
- inhibition at 0.625 µg/mL ([1]; concentration 0.6250 μg/mL, 120 hours): 82.5%
- inhibition at 1.25 µg/mL ([1]; concentration 1.2500 μg/mL, 120 hours): 92.2%
- inhibition at 2.5 µg/mL ([1]; concentration 2.5000 μg/mL, 120 hours): 93.4%
- inhibition at 5 µg/mL ([1]; concentration 5.0000 μg/mL, 120 hours): 85.4%
- inhibition at 10 µg/mL ([1]; concentration 10.0000 μg/mL, 120 hours): 92.2%
- inhibition at 100 µg/mL ([1]; concentration 100.0000 μg/mL, 120 hours): 88.9%

- MIC80 [1, 2]: 0.625 µg/mL (≈ 2.01 µM)
Structure (SMILES): c1ccc(C(c2ccccc2)(c2ccccc2)n2ccnc2)cc1 [Compound 1, 1-(triphenylmethyl)imidazole]
- inhibitory effect of melanin production relative to that of arbutin (normal human melanocytes; 1.0 μM Compound 1 compared with 0.5 mM arbutin): ≥ 100 times
- activity at 1 µM (normal human melanocytes; Homo sapiens, Melanocyte, addition amount 1.0 μM, control = 100%, mean ± SD of three samples): 63.8 ± 3.6%
- activity at 2 µM (normal human melanocytes; Homo sapiens, Melanocyte, control = 100%, mean ± SD of three samples): 37 ± 5.3%
- activity at 4 µM (normal human melanocytes; Homo sapiens, Melanocyte, addition amount 4.0 μM, control = 100%, mean ± SD of three samples): 29.2 ± 2.9%
- activity at 4 µM (normal human melanocytes; [3]): 29.5 ± 2.5%

Structure (SMILES): c1ccc(C(c2ccccc2)(c2ccccc2)N2CCCCC2)cc1 [Compound 5, 1-(triphenylmethyl)piperidine]
- activity at 1.5 µM (normal human melanocytes; Homo sapiens, Melanocyte, Table 2, addition amount 1.5 μM, control = 100%): 37.7 ± 0.8%
- activity at 4 µM (normal human melanocytes; [3]): 16.8 ± 0.96%
- inhibition at 0.1563 µg/mL ([1]; 120 h): -4.5%
- inhibition at 0.3125 µg/mL ([1]; 120 h): 8%
- inhibition at 0.625 µg/mL ([1]; 120 h): -2.7%
- inhibition at 1.25 µg/mL ([1]; 120 h): 3.1%
- inhibition at 2.5 µg/mL ([1]; 120 h): -4.5%
- inhibition at 5 µg/mL ([1]; 120 h): -17.5%
- inhibition at 10 µg/mL ([1]; 120 h): -14.4%
- inhibition at 100 µg/mL ([1]; 120 h): 13.2%
- MIC80 [1]: > 100 µg/mL

Structure (SMILES): c1ccc(C(c2ccccc2)(c2ccccc2)N2CCCC2)cc1 [Compound 6, 1-(triphenylmethyl)pyrrolidine]
- activity at 2 µM (normal human melanocytes; Homo sapiens, Melanocyte, Table 2, control = 100%): 32.6 ± 4.1%
- activity at 4 µM (normal human melanocytes; [3]): 17.2 ± 0.8%
- growth inhibitory effect on Trichopyton mentagrophytes (in words) [1]: no growth inhibitory effect
- MIC80 [1]: > 100 µg/mL

- MIC80 Concentration [1, 2]: 100.0000 µg/mL (≈ 471 µM)
- MIC80 [1, 2]: 100 µg/mL (≈ 471 µM)
Structure (SMILES): Cc1ccc(C(O)c2ccc(C)cc2)cc1 [Compound 14, [bis(4-methylphenyl)]methanol]
- activity at 25 µM (normal human melanocytes; Homo sapiens, Melanocyte, Table 2, addition amount 25 μM, control = 100%): 44.6 ± 5.6%
- activity at 40 µM (normal human melanocytes; Homo sapiens, Melanocyte, Table 7, treatment concentration 40 μM, read-out: Amount of melanin): 37.9 ± 1.39%

- MIC80 [1, 2]: 10 µg/mL (≈ 32.1 µM)
Structure (SMILES): c1ccc(C(c2ccccc2)(c2ccncc2)n2ccnc2)cc1 [Compound 40, 1-[(diphenylpyridyl)methyl]imidazole]
- activity at 20 µM (normal human melanocytes; [4]): 44.7 ± 4.2%

- MIC80 [1, 2]: 5 µg/mL (≈ 19.1 µM)
Structure (SMILES): Cc1ccc(C(c2ccc(C)cc2)n2ccnc2)cc1 [Compound 41]
- activity at 15 µM (normal human melanocytes; [4]): 34.1 ± 2.58%

Structure (SMILES): c1ccc(C(c2ccccc2)c2ccccc2)cc1 [Triphenylmethane]
- activity at 15 µM (normal human melanocytes; [4]): 32.2 ± 1.82%
- activity at 10 µM (normal human melanocytes; Homo sapiens, Melanocyte, Table 3, addition amount 10 μM, control = 100%): 42.3 ± 1.4%
- growth inhibitory effect on Trichopyton mentagrophytes (in words) [1]: no growth inhibitory effect
- MIC80 [1]: > 100 µg/mL

- MIC80 Concentration [1, 2]: 100.0000 µg/mL (≈ 384 µM)
- MIC80 [1, 2]: 100 µg/mL (≈ 384 µM)
Structure (SMILES): OC(c1ccccc1)(c1ccccc1)c1ccccc1 [Triphenylmethanol]
- activity at 7.5 µM (normal human melanocytes; Homo sapiens, Melanocyte, Table 3, addition amount 7.5 μM, control = 100%): 41.3 ± 2.8%
- activity at 15 µM (normal human melanocytes; [4]): 31.6 ± 2.39%

- MIC80 [1, 2]: > 100 µg/mL
Structure (SMILES): NC(c1ccccc1)(c1ccccc1)c1ccccc1 [Triphenylmethylamine]
- activity at 12.5 µM (normal human melanocytes; Homo sapiens, Melanocyte, Table 3, addition amount 12.5 μM, control = 100%): 57.3 ± 1.6%
- activity at 20 µM (normal human melanocytes; [4]): 23 ± 2.41%
- growth inhibitory effect on Trichopyton mentagrophytes (in words) [1]: no growth inhibitory effect
